Target: T1, PPARG-LBD (Homo sapiens, UniProt P37231)
T1 construct: purchased ThermoFisher
T1 sequence (P37231 238-503 limits assumed): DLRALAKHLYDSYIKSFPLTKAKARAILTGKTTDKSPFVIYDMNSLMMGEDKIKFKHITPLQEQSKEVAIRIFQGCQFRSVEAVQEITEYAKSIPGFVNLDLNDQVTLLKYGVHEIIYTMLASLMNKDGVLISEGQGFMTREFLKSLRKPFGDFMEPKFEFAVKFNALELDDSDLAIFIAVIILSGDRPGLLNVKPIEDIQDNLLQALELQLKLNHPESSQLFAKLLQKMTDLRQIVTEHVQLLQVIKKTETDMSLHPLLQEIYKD
Assay: Biochemical LanthaScreen TR-FRET PPAR gamma corepressor assay (PPARG-LBD / NCOR2 peptide)
Conditions: 2 h, read-out: Efficacy
Protocol: Biochemical Assay for Determining Inverse Agonist Activity of Compounds
A biochemical interaction assay measuring the ligand-dependent changes in interactions between the PPARG-LBD and a fluorescent peptide from the corepressor, NCOR2 (Smrt ID2, ThermoFisher), was performed to evaluate inverse agonist activity.
This assay was performed according to the manufacturers protocol (LanthaScreen TR-FRET PPAR gamma Corepressor Assay, ThermoFisher). […] After incubation the FRET signal was measured using an PHERAstar Plus Plate Reader (BMG). Every sample was tested in duplicate and mean values were used to calculate the EC50 values and efficacies of the compounds. A model of nonlinear regression curve fit was used for calculation.

C=CC(=O)Nc1ccc2oc(-c3ccc(CC)cc3)nc2c1 [Example 24, N-[2-(4-Ethylphenyl)-1,3-benzoxazol-5-yl]prop-2-enamide]
Emax: 0%
